System: epithelial cells
Format: cell-based, human

For `OC[C@H]1O[C@@](CO)(O[C@H]2O[C@H](CO)[C@@H](O)[C@H](O)[C@H]2O)[C@@H](O)[C@@H]1O` [5% Sucrose, sucrose], the “time after which sticky clumps were invaded by fungi and bacteria” value (0.5% solution) was 48 h, the “cell replication / tissue formation observed” value (0.5% solution, isolated epithelial cells, ambient temperature) was “Rapid cell replication was observed in form of sticky clumps with no distinct differentiation into tissue formation” and the “Potential for Tissue Growth” value (ambient temperature (24° C.)) was “sticky lump”.

— US20030096015A1, “Cytogenic/nucleogenic healing” (priority 1997, published 2003)
